Experimental data as given in ChEMBL document CHEMBL4043241, “Development and evaluation of 4-(pyrrolidin-3-yl)benzonitrile derivatives as inhibitors of lysine specific demethylase 1” (Bioorg Med Chem Lett, 2017).

Assays:
[1] = target: T1, Lysine-specific histone demethylase 1A (Homo sapiens, UniProt O60341); assay: Binding affinity to LSD1 (unknown origin) by SPR analysis
[2] = target: T1, Lysine-specific histone demethylase 1A
Description: Inhibition of recombinant human N-terminal truncated LSD1 (151 to 852 residues) expressed in Escherichia coli using histone H3(1-21)K4(Me1) biotin peptide as substrate measured after 30 mins by TR-FRET assay

[3] = target: Voltage-gated inwardly rectifying potassium channel KCNH2 (Homo sapiens, UniProt Q12809); assay: Inhibition of human ERG expressed in CHO cells by Ionworks electrophysiology method; format: cell-based
[4] = target: T2, Amine oxidase [flavin-containing] B (Homo sapiens, UniProt P27338); assay: Inhibition of recombinant human MAO-B expressed in supersomes using kynuramine as substrate by LC-MS/MS analysis
T2 sequence (P27338 whole entry): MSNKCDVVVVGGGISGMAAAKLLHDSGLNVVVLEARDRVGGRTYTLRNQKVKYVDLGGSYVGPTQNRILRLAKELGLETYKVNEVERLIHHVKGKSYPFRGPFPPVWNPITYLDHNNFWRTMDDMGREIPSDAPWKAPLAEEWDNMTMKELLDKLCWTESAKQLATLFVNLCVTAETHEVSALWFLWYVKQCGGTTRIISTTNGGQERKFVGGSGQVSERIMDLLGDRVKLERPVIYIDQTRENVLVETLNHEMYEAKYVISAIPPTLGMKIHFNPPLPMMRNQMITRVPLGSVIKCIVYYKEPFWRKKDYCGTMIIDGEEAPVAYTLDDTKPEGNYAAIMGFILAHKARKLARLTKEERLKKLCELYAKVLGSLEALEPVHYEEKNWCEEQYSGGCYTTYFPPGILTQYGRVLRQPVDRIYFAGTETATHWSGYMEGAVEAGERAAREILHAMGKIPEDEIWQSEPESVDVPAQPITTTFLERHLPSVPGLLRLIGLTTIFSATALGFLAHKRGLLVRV

[5] = target: T3, Amine oxidase [flavin-containing] A (Homo sapiens, UniProt P21397); assay: Inhibition of recombinant human MAO-A expressed in supersomes using kynuramine as substrate by LC-MS/MS analysis
T3 sequence (P21397 whole entry): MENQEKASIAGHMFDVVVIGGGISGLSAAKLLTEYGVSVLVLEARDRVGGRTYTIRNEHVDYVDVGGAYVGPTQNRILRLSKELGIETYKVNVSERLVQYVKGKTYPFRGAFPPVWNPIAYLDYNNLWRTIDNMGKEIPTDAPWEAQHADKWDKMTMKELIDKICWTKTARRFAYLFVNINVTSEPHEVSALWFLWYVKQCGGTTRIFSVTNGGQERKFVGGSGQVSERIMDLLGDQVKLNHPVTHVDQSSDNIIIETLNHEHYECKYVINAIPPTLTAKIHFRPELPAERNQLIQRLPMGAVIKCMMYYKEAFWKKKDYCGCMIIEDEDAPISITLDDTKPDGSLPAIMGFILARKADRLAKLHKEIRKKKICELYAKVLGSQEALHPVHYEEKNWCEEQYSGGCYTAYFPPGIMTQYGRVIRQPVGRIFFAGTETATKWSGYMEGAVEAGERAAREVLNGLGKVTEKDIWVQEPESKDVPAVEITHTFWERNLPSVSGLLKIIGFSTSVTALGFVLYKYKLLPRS

Voltage-gated inwardly rectifying potassium channel KCNH2, sequence (Q12809 whole entry): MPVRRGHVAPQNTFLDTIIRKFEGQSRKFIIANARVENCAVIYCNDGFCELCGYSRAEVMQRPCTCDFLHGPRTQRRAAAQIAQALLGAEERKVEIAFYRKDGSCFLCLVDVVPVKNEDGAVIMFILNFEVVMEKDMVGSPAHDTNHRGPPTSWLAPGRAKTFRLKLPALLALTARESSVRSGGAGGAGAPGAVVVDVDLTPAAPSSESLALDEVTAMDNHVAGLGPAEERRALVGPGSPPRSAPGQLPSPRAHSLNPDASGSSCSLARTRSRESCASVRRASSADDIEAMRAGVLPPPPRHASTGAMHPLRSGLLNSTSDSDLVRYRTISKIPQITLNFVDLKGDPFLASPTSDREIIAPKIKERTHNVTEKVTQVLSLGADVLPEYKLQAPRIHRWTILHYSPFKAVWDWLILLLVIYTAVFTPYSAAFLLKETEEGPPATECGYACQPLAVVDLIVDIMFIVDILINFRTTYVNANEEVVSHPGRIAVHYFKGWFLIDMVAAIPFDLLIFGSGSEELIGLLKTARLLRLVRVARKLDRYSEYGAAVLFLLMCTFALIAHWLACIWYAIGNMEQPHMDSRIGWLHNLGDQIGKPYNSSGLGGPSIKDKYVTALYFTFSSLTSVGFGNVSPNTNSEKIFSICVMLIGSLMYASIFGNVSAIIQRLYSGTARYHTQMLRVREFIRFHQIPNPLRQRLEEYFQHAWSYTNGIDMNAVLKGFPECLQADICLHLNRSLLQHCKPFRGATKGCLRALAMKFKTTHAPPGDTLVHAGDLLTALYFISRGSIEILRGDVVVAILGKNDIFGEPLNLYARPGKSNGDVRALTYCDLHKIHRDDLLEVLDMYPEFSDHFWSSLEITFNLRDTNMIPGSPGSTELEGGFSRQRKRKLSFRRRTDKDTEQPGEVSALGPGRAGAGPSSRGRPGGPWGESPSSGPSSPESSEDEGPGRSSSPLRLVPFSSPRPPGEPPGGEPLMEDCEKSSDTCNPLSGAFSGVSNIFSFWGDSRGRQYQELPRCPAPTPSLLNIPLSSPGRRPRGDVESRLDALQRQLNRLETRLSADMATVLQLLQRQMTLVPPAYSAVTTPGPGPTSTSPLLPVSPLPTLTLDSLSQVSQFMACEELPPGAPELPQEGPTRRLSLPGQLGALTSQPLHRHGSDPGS

Kd [1] [µM] | IC50 [2] [µM] | IC50 [4] [µM] | IC50 [5] [µM] | Structure (SMILES) | IC50 [3] [µM]
0.008 | 0.041 | – | – | Cc1ccc(-c2ncc(OC[C@@H]3CCNC3)cc2-c2ccc(C#N)cc2)cc1 | 3.2
– | – | > 25 | > 25 | Cc1ccc([C@@H]2CN(C(=O)[C@H]3CC[C@H](CN)CC3)C[C@H]2c2ccc(C#N)cc2)cc1 | 12.1
